Test results: patent US20240101538A1, “PROTEIN-PROTEIN INTERACTION MODULATORS OF AURORA KINASE A AND THEIR USE IN THE PREVENTION AND/OR TREATMENT OF CANCER” (EBERHARD KARLS UNIVERSITÄT TÜBINGEN, priority 2020, published 2024)

Experiments:
MYC-AURKA interaction = MYC-AURKA interaction (Mus musculus (Mouse), UniProt P97477); assay: Proximity ligation assay (PLA) for MYC and AURKA in NMP53^−/− cells; type: cell-based, murine; conditions: 2 h after treatment
Procedure: To examine whether this MYC degradation is associated with MYC-AURKA PPI disruption, the inventors performed proximity ligation assays (PLA) in NMP53^−/− cells. For Proximity Ligation Assay (PLA), 50 000 cells were seeded on 12 mm glass slides placed in 6 well plates. On the next day, the cells were treated with the indicated compounds or the corresponding DMSO concentration for 2 h (compound 2c [N-(5-((4-(1H-pyrazole-4-yl)benzyl)amino)-2-fluorophenyl)-3-(furan-2-yl)propanamide] and compound 3a [N-(2-fluoro-5-((4-(1-methyl-1H-pyrazole-4-yl)benzyl)amino)phenyl)-3-(furan-2-yl)propanamide]) or 24 h (alisertib) and fixed for 10 min in 100% MeOH at −20° C. The glass slides were removed from the 6 well plates and the cells permeabilized with TBS+0.3% Triton X-100 for 5 min. After washing with PBS and blocking with 5% BSA in TBS+0.05% Tween for 30 min, the slides were incubated with MYC (Abeam ab32072, 1:200) and AURKA (Abcam ab13824, 1:200) specific antibodies in 1% BSA in TBS+0.05% Tween for 120 min at RT and washed 3 times with PBS for 5 min, wherein the MYC/TPX2 and AURKA specific antibodies are derived from a different species. After a 20 min pre-incubation of two PLA probes, directed against either species of the MYC/TPX2 and AURKA specific antibodies, at RT (DUO92001 and DUO92005 Sigma Aldrich, diluted 1:10 in 1% BSA in TBS+0.05% Tween), the slides were incubated with the probes for 60 min at 37° C. in a humidified chamber. The slides were washed 3 times with 1× wash buffer A (Sigma Aldrich DUO82049) for 5 min and incubated with the ligase solution (ligase diluted 1:40 in 5× ligase buffer and ddH2O, Sigma Aldrich DUO92008) for 60 min at 37° C. in a humidified chamber. […] The foci per cell were counted in a way that the cytoplasmic foci are counted to the cell with the closest nucleus (DAPI). Significance was calculated with the GraphPad Prism 8.4.0 software (GraphPad Software, La Jolla, CA) by using the nonparametric Mann Whitney test.

MYC = assay: Western blot analysis of cellular MYC levels in NMP53^−/− cells; type: cell-based, murine; conditions: 8 h after treatment with increasing concentrations
Procedure: A. Western blot analysis of MYC and AURKA in tumor cells (NMP53/cells) 8 h after treatment with increasing concentrations of compound 2c [N-(5-((4-(1H-pyrazole-4-yl)benzyl)amino)-2-fluorophenyl)-3-(furan-2-yl)propanamide]. Vinculin served as loading control (n=2) B. Western blot analysis of MYC and AURKA in tumor cells (NMP53^−/− cells) 8 h after treatment with increasing concentrations of compound 3a [N-(2-fluoro-5-((4-(1-methyl-1H-pyrazole-4-yl)benzyl)amino)phenyl)-3-(furan-2-yl)propanamide]. Vinculin served as loading control (n=2). […]
For western blot analysis, 2×10^6 cells were seeded per 10 cm dish and next day treated with the indicated compound concentrations. […] After addition of 4× Laemmli buffer (200 mM Tris-HCl pH 6.8, 8% SDS, 4% (3-mercaptoethanol, 40% glycerol, 0.33% bromophenol blue) the lysates were boiled for 5 min at 95° C. For western blot analysis, proteins were separated by SDS-polyacrylamide electrophoresis (using 25 μg of each sample) and transferred onto PVDF Immobilon-P membranes (Millipore). The blots were incubated with antibodies specific to MYC (Abeam ab32072, 1:1 000), AURKA (Abeam ab13824, 1:1 000) and Vinculin (Sigma Aldrich V9131-2 mL 1:10 000), followed by peroxidase-conjugated secondary antibodies. Proteins were detected by ChemiDoc MP Imaging System (Bio-Rad) using Clarity Western ECL Substrate (Bio-Rad).

Sequence of MYC-AURKA interaction (P97477 whole entry): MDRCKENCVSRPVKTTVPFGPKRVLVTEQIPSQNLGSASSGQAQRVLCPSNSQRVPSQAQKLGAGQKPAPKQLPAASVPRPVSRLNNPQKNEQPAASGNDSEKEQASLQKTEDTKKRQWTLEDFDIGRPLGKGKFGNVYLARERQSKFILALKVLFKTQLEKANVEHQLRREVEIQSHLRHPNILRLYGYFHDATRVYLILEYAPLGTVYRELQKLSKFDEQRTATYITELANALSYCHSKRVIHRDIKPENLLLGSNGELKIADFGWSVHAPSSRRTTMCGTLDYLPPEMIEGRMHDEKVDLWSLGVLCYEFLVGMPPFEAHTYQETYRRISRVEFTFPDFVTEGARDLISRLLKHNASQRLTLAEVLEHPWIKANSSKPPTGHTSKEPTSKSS

Row | reduction of the MYC-AURKA interaction compared to DMSO (MYC-AURKA interaction) | Structure (SMILES) | MYC levels (MYC)
1 | 66.7% | O=C(CCc1ccco1)Nc1cc(NCc2ccc(-c3cn[nH]c3)cc2)ccc1F [Compound 2c, N-(5-((4-(1H-pyrazole-4-yl)benzyl)amino)-2-fluorophenyl)-3-(furan-2-yl)propanamide] | reduced in a concentration dependent manner
2 | 50% | Cn1cc(-c2ccc(CNc3ccc(F)c(NC(=O)CCc4ccco4)c3)cc2)cn1 [Compound 3a, N-(2-fluoro-5-((4-(1-methyl-1H-pyrazole-4-yl)benzyl)amino)phenyl)-3-(furan-2-yl)propanamide] | reduced in a concentration dependent manner
